Assay results taken from ChEMBL document CHEMBL5528040, “Design and Synthesis of Novel 3-Nitro-1H-1,2,4-triazole-1,2,3-triazole-1,4-disubstituted Analogs as Promising Antitrypanosomatid Agents: Evaluation of In Vitro Activity against Chagas Disease and Leishmaniasis” (J Med Chem, 2024).

Legend:
[1] = Mutagenicity in Salmonella typhimurium TA102 assessed as mutagenic index ratio at 50 ug per plate incubated for 90 mins in presence of S9 fraction by AMES test; format: toxicity, subcellular, Salmonella enterica subsp. enterica serovar Typhimurium; details: s9, 1.5 h, dose 50 µg
[2] = Mutagenicity in Salmonella typhimurium TA98 assessed as mutagenic index ratio at 500 ug per plate incubated for 90 mins by AMES test; format: toxicity, Salmonella enterica subsp. enterica serovar Typhimurium; details: in vivo, 1.5 h, dose 500 µg
[3] = Mutagenicity in Salmonella typhimurium TA100 assessed as number of revertant colonies at 50 ug per plate incubated for 90 mins by AMES test (reference value: 88.00 +/- 2.65); format: toxicity, Salmonella enterica subsp. enterica serovar Typhimurium; details: in vivo, 1.5 h, dose 50 µg
[4] = Mutagenicity in Salmonella typhimurium TA98 assessed as number of revertant colonies at 1500 ug per plate incubated for 90 mins by AMES test (reference value: 22.67 +/- 0.58); format: toxicity, Salmonella enterica subsp. enterica serovar Typhimurium; details: in vivo, 1.5 h, dose 1500 µg
[5] = Mutagenicity in Salmonella typhimurium TA102 assessed as mutagenic index ratio at 150 ug per plate incubated for 90 mins in presence of S9 fraction by AMES test; format: toxicity, subcellular, Salmonella enterica subsp. enterica serovar Typhimurium; details: s9, 1.5 h, dose 150 µg
[6] = Mutagenicity in Salmonella typhimurium TA102 assessed as mutagenic index ratio at 500 ug per plate incubated for 90 mins in presence of S9 fraction by AMES test; format: toxicity, subcellular, Salmonella enterica subsp. enterica serovar Typhimurium; details: s9, 1.5 h, dose 500 µg
[7] = Mutagenicity in Salmonella typhimurium TA98 assessed as mutagenic index ratio at 50 ug per plate incubated for 90 mins by AMES test; format: toxicity, Salmonella enterica subsp. enterica serovar Typhimurium; details: in vivo, 1.5 h, dose 50 µg
[8] = Mutagenicity in Salmonella typhimurium TA98 assessed as number of revertant colonies at 1500 ug per plate incubated for 90 mins in presence of S9 fraction by AMES test (reference value: 21.00 +/- 1.00); format: toxicity, subcellular, Salmonella enterica subsp. enterica serovar Typhimurium; details: s9, 1.5 h, dose 1500 µg
[9] = Cytotoxicity against monkey LLC-MK2 cells incubated for 72 hrs by MTT assay; format: toxicity, cell-based, Macaca mulatta; details: rhesus monkey
[10] = Mutagenicity in Salmonella typhimurium TA102 assessed as number of revertant colonies at 50 ug per plate incubated for 90 mins in presence of S9 fraction by AMES test (reference value: 130.00 +/- 6.93); format: toxicity, subcellular, Salmonella enterica subsp. enterica serovar Typhimurium; details: s9, 1.5 h, dose 50 µg
[11] = Mutagenicity in Salmonella typhimurium TA100 assessed as number of revertant colonies at 1500 ug per plate incubated for 90 mins by AMES test (reference value: 88.00 +/- 2.65); format: toxicity, Salmonella enterica subsp. enterica serovar Typhimurium; details: in vivo, 1.5 h, dose 1500 µg
[12] = Mutagenicity in Salmonella typhimurium TA100 assessed as number of revertant colonies at 500 ug per plate incubated for 90 mins in presence of S9 fraction by AMES test (reference value: 122.67 +/- 5.03); format: toxicity, subcellular, Salmonella enterica subsp. enterica serovar Typhimurium; details: s9, 1.5 h, dose 500 µg
[13] = Mutagenicity in Salmonella typhimurium TA98 assessed as mutagenic index ratio at 500 ug per plate incubated for 90 mins in presence of S9 fraction by AMES test; format: toxicity, subcellular, Salmonella enterica subsp. enterica serovar Typhimurium; details: s9, 1.5 h, dose 500 µg
Leishmania amazonensis = assay: Antileishmanial activity against Leishmania amazonensis IFLA/BR/1967/PH8 amastigotes infected in murine peritoneal macrophages incubated for 24 hrs by Giemsa staining based analysis; format: functional, organism-based; details: IFLA/BR/1967/PH8, Peritoneal macrophage
[14] = Mutagenicity in Salmonella typhimurium TA98 assessed as mutagenic index ratio at 5000 ug per plate incubated for 90 mins by AMES test; format: toxicity, Salmonella enterica subsp. enterica serovar Typhimurium; details: in vivo, 1.5 h, dose 5000 µg
[15] = Mutagenicity in Salmonella typhimurium TA102 assessed as number of revertant colonies at 5000 ug per plate incubated for 90 mins in presence of S9 fraction by AMES test (reference value: 130.00 +/- 6.93); format: toxicity, subcellular, Salmonella enterica subsp. enterica serovar Typhimurium; details: s9, 1.5 h, dose 5000 µg
[16] = Mutagenicity in Salmonella typhimurium TA98 assessed as number of revertant colonies at 5000 ug per plate incubated for 90 mins by AMES test (reference value: 22.67 +/- 0.58); format: toxicity, Salmonella enterica subsp. enterica serovar Typhimurium; details: in vivo, 1.5 h, dose 5000 µg
[17] = Mutagenicity in Salmonella typhimurium TA98 assessed as number of revertant colonies at 500 ug per plate incubated for 90 mins in presence of S9 fraction by AMES test (reference value: 21.00 +/- 1.00); format: toxicity, subcellular, Salmonella enterica subsp. enterica serovar Typhimurium; details: s9, 1.5 h, dose 500 µg
Trypanosoma cruzi [18] = assay: (§1) Antitrypanosomal activity against Trypanosoma cruzi Tulahuen amastigotes transfected with Escherichia coli beta-galactosidase LacZ gene infected in monkey LLC-MK2 cells assessed as inhibition of amastigotes growth incubated for 72 hrs by absorbance based microplate reader analysis; format: functional, organism-based; details: LLC-MK2, 72 h
[19] = Mutagenicity in Salmonella typhimurium TA102 assessed as mutagenic index ratio at 500 ug per plate incubated for 90 mins by AMES test; format: toxicity, Salmonella enterica subsp. enterica serovar Typhimurium; details: in vivo, 1.5 h, dose 500 µg
[20] = Mutagenicity in Salmonella typhimurium TA100 assessed as number of revertant colonies at 5000 ug per plate incubated for 90 mins by AMES test (reference value: 88.00 +/- 2.65); format: toxicity, Salmonella enterica subsp. enterica serovar Typhimurium; details: in vivo, 1.5 h, dose 5000 µg
[21] = Mutagenicity in Salmonella typhimurium TA100 assessed as mutagenic index ratio at 500 ug per plate incubated for 90 mins in presence of S9 fraction by AMES test; format: toxicity, subcellular, Salmonella enterica subsp. enterica serovar Typhimurium; details: s9, 1.5 h, dose 500 µg
[22] = Mutagenicity in Salmonella typhimurium TA100 assessed as number of revertant colonies at 500 ug per plate incubated for 90 mins by AMES test (reference value: 88.00 +/- 2.65); format: toxicity, Salmonella enterica subsp. enterica serovar Typhimurium; details: in vivo, 1.5 h, dose 500 µg
[23] = Mutagenicity in Salmonella typhimurium TA100 assessed as mutagenic index ratio at 5000 ug per plate incubated for 90 mins by AMES test; format: toxicity, Salmonella enterica subsp. enterica serovar Typhimurium; details: in vivo, 1.5 h, dose 5000 µg
[24] = Mutagenicity in Salmonella typhimurium TA98 assessed as mutagenic index ratio at 1500 ug per plate incubated for 90 mins in presence of S9 fraction by AMES test; format: toxicity, subcellular, Salmonella enterica subsp. enterica serovar Typhimurium; details: s9, 1.5 h, dose 1500 µg
[25] = Mutagenicity in Salmonella typhimurium TA98 assessed as number of revertant colonies at 150 ug per plate incubated for 90 mins in presence of S9 fraction by AMES test (reference value: 21.00 +/- 1.00); format: toxicity, subcellular, Salmonella enterica subsp. enterica serovar Typhimurium; details: s9, 1.5 h, dose 150 µg
[26] = Mutagenicity in Salmonella typhimurium TA102 assessed as number of revertant colonies at 50 ug per plate incubated for 90 mins by AMES test (reference value: 110.67 +/- 20.15); format: toxicity, Salmonella enterica subsp. enterica serovar Typhimurium; details: in vivo, 1.5 h, dose 50 µg
[27] = Mutagenicity in Salmonella typhimurium TA100 assessed as mutagenic index ratio at 5000 ug per plate incubated for 90 mins in presence of S9 fraction by AMES test; format: toxicity, subcellular, Salmonella enterica subsp. enterica serovar Typhimurium; details: s9, 1.5 h, dose 5000 µg
[28] = Mutagenicity in Salmonella typhimurium TA100 assessed as mutagenic index ratio at 150 ug per plate incubated for 90 mins by AMES test; format: toxicity, Salmonella enterica subsp. enterica serovar Typhimurium; details: in vivo, 1.5 h, dose 150 µg
[29] = Mutagenicity in Salmonella typhimurium TA102 assessed as mutagenic index ratio at 1500 ug per plate incubated for 90 mins by AMES test; format: toxicity, Salmonella enterica subsp. enterica serovar Typhimurium; details: in vivo, 1.5 h, dose 1500 µg
[30] = Mutagenicity in Salmonella typhimurium TA98 assessed as number of revertant colonies at 150 ug per plate incubated for 90 mins by AMES test (reference value: 22.67 +/- 0.58); format: toxicity, Salmonella enterica subsp. enterica serovar Typhimurium; details: in vivo, 1.5 h, dose 150 µg
Trypanosoma cruzi [31] = assay: as §1, with “Potency index, ratio of Benznidazole IC50 to test compound IC50 for antitrypanosomal” for “Antitrypanosomal”; format: functional
[32] = Mutagenicity in Salmonella typhimurium TA100 assessed as number of revertant colonies at 50 ug per plate incubated for 90 mins in presence of S9 fraction by AMES test (reference value: 122.67 +/- 5.03); format: toxicity, subcellular, Salmonella enterica subsp. enterica serovar Typhimurium; details: s9, 1.5 h, dose 50 µg

- IC50 (Leishmania amazonensis): 4.7 µM
- IC50 (Trypanosoma cruzi [18]): 0.09 µM
SMILES: O=[N+]([O-])c1ncn(Cc2cn(-c3ccc(OC(F)(F)F)cc3)nn2)n1
- Ratio [1]: 0.2
- Ratio [2]: 0.9
- Activity [3]: 104.33
- Activity [4]: 20.33
- Ratio [5]: 1.3
- Ratio [6]: 1.4
- Ratio [7]: 0.8
- Activity [8]: 22
- CC50 at 72 h [9]: > 50 µM
- Activity [10]: 162.67
- Activity [11]: 81
- Activity [12]: 129
- Ratio [13]: 1.1
- Ratio [14]: 1.1
- Activity [15]: 131
- Activity [16]: 25
- Activity [17]: 23.33
- Ratio [19]: 1.4
- Activity [20]: 80.67
- Ratio [21]: 1
- Activity [22]: 83
- Ratio [23]: 0.9
- Ratio [24]: 1
- Activity [25]: 23.33
- Activity [26]: 215.33
- Ratio [27]: 0.3
- Ratio [28]: 1
- Ratio [29]: 1.2
- Activity [30]: 24.67
- Ratio IC50 (Trypanosoma cruzi [31]): 68
- Activity [32]: 121.33
